From PubChem BioAssay AID1996
Values after ≈ are worked out from the molar mass of the structure shown.

Details: buffer; pH 7.4; 200.0 µM

Structure (SMILES) | solubility kinetic
COc1ccc2cc(C(C)C(=O)N3CCC(C)CC3)ccc2c1 (centres undefined) | 18.8 µg/mL (≈ 60.4 µM)
Cc1cccc(NC(=O)c2cc(C)nc3ccccc23)c1 | 0.7 µg/mL (≈ 2.53 µM)
Cc1nc2c(C#N)c[nH]n2c(=O)c1CCO | > 32.7 µg/mL
COc1ccccc1C/C(N)=N/OC(=O)c1ccc2c(c1)OCO2 | > 49.2 µg/mL
CSc1ccccc1NC(=O)COC(=O)CCc1ccccc1 | 27.8 µg/mL (≈ 84.4 µM)
COCC(C)NCc1cccc2ccccc12.O=C(O)C(=O)O (centres undefined) | > 47.9 µg/mL
CCOC(=O)C1CCCN(C(=S)NC2CCCCC2)C1 (centres undefined) | > 44.8 µg/mL
COc1ccc(NC(=O)c2ccc(S(=O)(=O)C(F)F)cc2)c(OC)c1 | 13.1 µg/mL (≈ 35.3 µM)
C=CCn1c(SCC(=O)Nc2c(C)n(C)n(-c3ccccc3)c2=O)nnc1-c1cccnc1 | > 69.2 µg/mL
COc1cc([N+](=O)[O-])ccc1NC(=O)NCc1cccnc1 | 17 µg/mL (≈ 56.2 µM)
O=c1c2cc(NC(=S)NC3CC3)ccc2nc2n1CCCCC2 | 34.7 µg/mL (≈ 106 µM)
O=C1N=C(N2CCc3ccccc3C2)S/C1=C\c1ccc(O)cc1 | 3.4 µg/mL (≈ 10.1 µM)
O=C(c1cc([N+](=O)[O-])cc([N+](=O)[O-])c1)N1CCN(C(=O)c2ccco2)CC1 | 54 µg/mL (≈ 144 µM)
Cc1ccc(C)c(NC(=S)NCCc2c[nH]c3ccccc23)c1 | 17.1 µg/mL (≈ 52.9 µM)
COCCOC(=O)c1[nH]c2c(c1C)C(=O)CC(c1ccc(OC)cc1)C2 (centres undefined) | 1.6 µg/mL (≈ 4.48 µM)
S=c1[nH]ccn1-c1cccc(Cl)c1Cl | > 36.8 µg/mL
O=C(CCCc1ccccc1)Nc1ccccn1 | > 36 µg/mL
Cc1cccc(N=C2NC(=O)/C(=C/c3cccn3C)S2)c1 | 1 µg/mL (≈ 3.36 µM)
Cc1ccc2c(CC(=O)NNC(=O)c3ccncc3)coc2c1 | > 46.4 µg/mL
CC(=O)c1cccc(NC(=O)COC(=O)C2CCCN2C(=O)c2cccs2)c1 (centres undefined) | 6.5 µg/mL (≈ 16.2 µM)
Cc1c([N+](=O)[O-])cc(C(=O)Nc2ccc3ncccc3c2)cc1[N+](=O)[O-] | 0.5 µg/mL (≈ 1.42 µM)
COc1ccc(NC(=O)N2CCCc3ccccc32)c(OC)c1 | 45.3 µg/mL (≈ 145 µM)

Structure (SMILES) | solubility kinetic
Cc1cc(NC(=O)CC(C)C)c(=O)n(Cc2ccccc2F)c1 | 37.3 µg/mL (≈ 118 µM)
Cc1ccn2c(C=O)c(-c3ccc(F)cc3)c(C=O)c2c1 | 8.5 µg/mL (≈ 30.2 µM)
O=C(O)c1ccccc1OCc1nc2ccccc2s1 | < 0.6 µg/mL
Cc1cc(C)c(S(=O)(=O)N2CCCC2)c(C)c1 | 30.4 µg/mL (≈ 120 µM)
O=[N+]([O-])c1ccc(C2=CSC3=NCCN23)cc1 | 31.2 µg/mL (≈ 126 µM)
Cc1cc(C)nc(NCc2ccc(Cl)cc2)n1.Cl | 5.4 µg/mL
C#CCOc1c(Cl)cc(/C=C2/C(=O)ON=C2C)cc1OC | 43.5 µg/mL (≈ 142 µM)
COc1cccc(C=O)c1OCCCOc1cccc2cccnc12 | 34.9 µg/mL (≈ 103 µM)
Cc1cc2c(=O)oc(-c3ccc(Br)cc3)nc2s1 | < 0.7 µg/mL
O=C1CNC(=S)N1C(CO)c1ccccc1 (centres undefined) | > 35.4 µg/mL
O=C(CSc1ncccn1)NC(=O)Cc1ccccc1 | > 43.1 µg/mL
Cc1cc(C)n2nc(SC(C)C(=O)N(C)C3CCCCC3)nc2n1 (centres undefined) | > 52.1 µg/mL
CCOc1ccc(NS(=O)(=O)c2cc(C)c(C)cc2C)cc1 | 10.2 µg/mL (≈ 31.9 µM)
COc1ccc(-n2c(C)nc3sc4c(c3c2=O)CCCC4)cc1 | 6.4 µg/mL (≈ 19.6 µM)
Cc1ccc(SCC(=O)OCC(=O)NCCc2ccc(S(N)(=O)=O)cc2)c(C)c1 | 51.3 µg/mL (≈ 118 µM)
Cc1ccc2c(ccc(=S)n2C)c1 | 24.1 µg/mL (≈ 127 µM)
NC(=O)N1CCc2ccccc21 | > 24.3 µg/mL
Cc1nc2oc3ccc(F)cc3c(=O)c2cc1C(=O)O | 40.8 µg/mL (≈ 149 µM)
COc1ccc(NC(=O)Cc2ccc(Cl)cc2Cl)cn1 | 33.8 µg/mL (≈ 109 µM)
C/C(Cc1ccccc1)=N\NC(=O)CNC(=O)c1ccccc1O | > 48.8 µg/mL
Cc1cccc(C(=O)N2CCCC(c3nc(-c4ccc(F)cc4)no3)C2)c1 (centres undefined) | 12.4 µg/mL (≈ 33.9 µM)
Cn1c(=O)c2c(nc(SCC(=O)N3CCOCC3)n2C)n(C)c1=O | > 53 µg/mL

Structure (SMILES) | solubility kinetic
CC(C)c1ccc(Nc2nc(Cl)nc(Cl)n2)cc1 | 28.5 µg/mL (≈ 101 µM)
CN1CCN(c2nc3ccccc3nc2NS(=O)(=O)c2ccc(Br)cc2)CC1 | > 69.4 µg/mL
CC(=O)c1ccc(N2CCN(Cc3nc4ccccc4[nH]3)CC2)cc1 | 29.8 µg/mL (≈ 89.1 µM)
O=C(CN1C(=O)COc2ccc(Cl)cc21)Nc1nccs1 | 1.4 µg/mL (≈ 4.32 µM)
Cc1cc(=O)[nH]c(SCC(=O)Nc2ccc(F)c([N+](=O)[O-])c2)n1 | > 50.7 µg/mL
CC(C)CCSc1nnc(N)s1 | > 30.5 µg/mL
CC(C)CN(CC(C)C)C(=O)Nc1ccc(F)cc1F | 33.2 µg/mL (≈ 117 µM)
CC(C)(C)Nc1nc(-c2ccc3c(c2)CCN3C(=O)C2CC2)cs1 | 5.4 µg/mL (≈ 15.8 µM)
CCNc1nc2c(c(=O)[nH]c(=O)n2C)n1CCCc1ccccc1 | 20.8 µg/mL (≈ 63.5 µM)
O=C(O)Cc1sc(-c2ccccc2)nc1-c1cccs1 | > 45.2 µg/mL
Cl.O[C@@H]1CCCC[C@H]1N1CCC(c2ccccc2)CC1 | > 44.4 µg/mL
Cc1cc(C)c(S(=O)(=O)N2CCCCC2C(=O)O)c(C)c1 (centres undefined) | > 46.7 µg/mL
CC(CC(=O)NCCc1ccc(F)cc1)c1ccccc1 (centres undefined) | 39.3 µg/mL (≈ 138 µM)
Cn1ccnc1C(OC(=O)c1ccc(Cl)cc1)C(F)(F)F (centres undefined) | > 47.8 µg/mL
Cc1ccc(NS(=O)(=O)c2ccc(Cl)nc2)c(C)c1 | > 44.5 µg/mL
O=C(Cc1ccccc1)NCc1cccnc1 | 33.8 µg/mL (≈ 149 µM)
CC(NS(=O)(=O)c1ccccc1)C(=O)NCCc1ccccn1 (centres undefined) | > 50 µg/mL
CCn1cc(S(=O)(=O)N2CCCC2)cn1 | > 34.4 µg/mL
COc1ccc(NC(=O)COC(=O)Cc2ccsc2)c(OC)c1 | 50.1 µg/mL (≈ 149 µM)
Cc1ccnc(Nc2nc(-c3ccc(F)cc3)cs2)c1 | < 0.2 µg/mL
O=C(CCCC(=O)c1ccccc1)NCCc1ccccc1 | > 44.3 µg/mL

Continued, values first:

solubility kinetic | Structure (SMILES)
12.7 µg/mL (≈ 38.4 µM) | O=C(CN1CCN(c2ccc(F)cc2)CC1)c1ccc(O)cc1O
46.3 µg/mL (≈ 136 µM) | CC(=O)Nc1ccc(S(=O)(=O)NCCCN2CCOCC2)cc1
1.3 µg/mL (≈ 4.64 µM) | Cc1cc(C)cc(NC(=O)N2CCc3ccccc3C2)c1
1.2 µg/mL (≈ 4.18 µM) | CCc1cc2c(=O)c(-c3nc(C)cs3)coc2cc1O
33.5 µg/mL (≈ 133 µM) | N#C/C(=C\c1cc([N+](=O)[O-])ccc1Cl)C(N)=O
> 45.7 µg/mL | O=C(NCC1CCCO1)c1cc(C(=O)C2CCCCC2)c[nH]1 (centres undefined)
37.3 µg/mL (≈ 150 µM) | CSc1nc(-c2cccs2)c(C#N)c(=O)[nH]1
41.5 µg/mL (≈ 128 µM) | CC1CC(C)(C)NC(=S)N1CC(=O)NCc1ccc(F)cc1 (centres undefined)
> 49.7 µg/mL | Cc1c(C)c2ccc(OCC(=O)N3CCOCC3)c(C)c2oc1=O
11.1 µg/mL (≈ 37.4 µM) | Cc1ccc(CNC(=O)c2cc(Cl)cc(Cl)c2)n1C
< 0.3 µg/mL | Cc1ccc(NC(=O)CCC(=O)Nc2ccc(C)cc2)cc1
6.5 µg/mL (≈ 23.4 µM) | Cc1ccc(CC(=O)Nc2ncc([N+](=O)[O-])s2)cc1
17.3 µg/mL (≈ 55.6 µM) | COc1ccc(-c2oc(=O)n(C)c2-c2ccc(OC)cc2)cc1
3 µg/mL (≈ 12.6 µM) | Cc1cc(C)c2oc(-c3cccc(N)c3)nc2c1
10.2 µg/mL (≈ 37 µM) | CCCCOc1ccc(CC2CCC(=O)NC2=O)cc1 (centres undefined)
35.2 µg/mL (≈ 130 µM) | O=Cc1c(NC2CCCCC2)c2ccccc2[nH]c1=O
63.3 µg/mL (≈ 140 µM) | CC(=O)NS(=O)(=O)c1ccc(NC(=O)C(C)NS(=O)(=O)/C=C/c2ccccc2)cc1 (centres undefined)
0.7 µg/mL (≈ 2.32 µM) | CC(C)CC(=O)c1c[nH]c(C(=O)NCc2ccc(F)cc2)c1
< 0.6 µg/mL | O=S(=O)(c1ccc(-c2ccccc2)cc1)N1CCCCC1
2.5 µg/mL (≈ 7.79 µM) | O=C(CN1CCCCC1)Nc1ccc(C(F)(F)F)cc1Cl
> 50.5 µg/mL | Cc1cc(C)c(NC(=O)CCCSc2nnc(N)s2)c(C)c1
> 53.5 µg/mL | CCOc1ccc(NC(=O)N(CCN(C)C)C(C)c2cccnc2)cc1 (centres undefined)
13 µg/mL | Cc1cc2c(Nc3ccccc3)ncnc2s1.Cl
> 46.3 µg/mL | O=C(Cc1ccccc1)NCC(=O)N1CCc2ccccc2C1
> 31.5 µg/mL | CCOC(=O)/C(C#N)=C/N1CCOCC1
> 81.7 µg/mL | Cc1noc(NS(=O)(=O)c2ccc(NC(=O)c3ccccc3NS(=O)(=O)c3ccc(F)cc3)cc2)c1C
4.8 µg/mL (≈ 14.6 µM) | O=c1[nH]c(=S)[nH]c2nc(-c3cccs3)cc(C(F)(F)F)c12

solubility kinetic | Structure (SMILES)
> 55.8 µg/mL | CCCn1c(SCC(=O)Nc2ccc(F)c(Cl)c2)nc(O)cc1=O
40 µg/mL (≈ 123 µM) | OCCC1CN(C/C=C/c2ccco2)CCN1Cc1ccccc1 (centres undefined)
< 0.3 µg/mL | CCC(C)c1ccc(S(=O)(=O)N2CCN(c3ccccn3)CC2)cc1 (centres undefined)
> 77.4 µg/mL | Cc1ccc(C(=O)NCC(=O)OCC(=O)Nc2cc(S(=O)(=O)N3CCOCC3)ccc2Cl)s1
> 51.7 µg/mL | O=c1c2ccccc2nc2n1C(CSc1ccc(F)cc1)CS2 (centres undefined)
> 31.7 µg/mL | Cc1nnc(NN2CCOCC2)[nH]c1=O
40.9 µg/mL (≈ 120 µM) | COc1ccc(C2(NC(C)=O)CCN(Cc3cccnc3)CC2)cc1
> 48 µg/mL | CCOP(=O)(OCC)C(Nc1ccccc1)c1cccnc1 (centres undefined)
7.9 µg/mL (≈ 24.4 µM) | COc1ccc(C(C)=O)cc1CC(=O)Nc1ccc2c(c1)CCC2
< 0.4 µg/mL | CCOC(=O)c1cc(-c2csc(-c3cccc(Cl)c3)n2)on1
35 µg/mL (≈ 129 µM) | O=C(Nc1ccccc1N1CCOCC1)c1ccco1
18.4 µg/mL (≈ 53.4 µM) | COc1cc2c(cc1OC)C(C)N(C(=O)Nc1ccc(F)cc1)CC2 (centres undefined)
44.3 µg/mL (≈ 122 µM) | CCCCOC(=O)c1ccc(NC(=O)C(=O)NCCN(CC)CC)cc1
> 48.8 µg/mL | Cc1c(NC2=CC(=O)CC(C)(C)C2)c(=O)n(-c2ccccc2)n1C
30 µg/mL (≈ 101 µM) | CCN(CC)C(=O)N1CCN(C(=O)N2CCOCC2)CC1
5.4 µg/mL (≈ 17.9 µM) | Cc1cccn2c(=O)c(C(=O)NC3CCCCC3)c(O)nc12
< 0.2 µg/mL | COc1ccccc1C1CCN(c2ccc([N+](=O)[O-])cn2)CC1
33.7 µg/mL (≈ 123 µM) | CC(=O)c1cccc(NC(=S)NCc2ccco2)c1
7.8 µg/mL (≈ 34.9 µM) | Cc1ccc(N2Cc3ccccc3C2=O)cc1
> 42.5 µg/mL | O=C(CCCC(=O)c1ccccc1)Nc1ccc(O)cc1
> 60.5 µg/mL | CCOC(=O)c1ccc(S(=O)(=O)N2CCN(C(=O)c3ccccn3)CC2)cc1
12 µg/mL (≈ 30.7 µM) | CCOc1ncccc1C(=O)Nc1cccc(S(=O)(=O)N2CCOCC2)c1
> 32.3 µg/mL | CC1CC(C#N)N(N(C)C)C1=C(C#N)C#N (centres undefined)
> 50.9 µg/mL | O=C(Cc1nc(-c2cnccn2)no1)NNC(=O)Nc1ccccc1
> 50.8 µg/mL | CCS(=O)(=O)N1CCC(C(=O)Nc2ccc(C(C)=O)cc2)CC1
8 µg/mL (≈ 27.8 µM) | O=C(NCc1ccco1)C1CC(c2ccc(F)cc2)=NO1 (centres undefined)
33.5 µg/mL (≈ 115 µM) | Cc1ccc(C)c(NC(=O)c2cc(C)nc3ccccc23)c1
